The source of these data is patent US6979686B1, “Substituted pyrazoles as p38 kinase inhibitors” (Pharmacia Corporation, priority 2001, dated 2005).

Each structure is given as a SMILES string. Bounds are passed on as bounds.

T1 sequence (Q16539 whole entry): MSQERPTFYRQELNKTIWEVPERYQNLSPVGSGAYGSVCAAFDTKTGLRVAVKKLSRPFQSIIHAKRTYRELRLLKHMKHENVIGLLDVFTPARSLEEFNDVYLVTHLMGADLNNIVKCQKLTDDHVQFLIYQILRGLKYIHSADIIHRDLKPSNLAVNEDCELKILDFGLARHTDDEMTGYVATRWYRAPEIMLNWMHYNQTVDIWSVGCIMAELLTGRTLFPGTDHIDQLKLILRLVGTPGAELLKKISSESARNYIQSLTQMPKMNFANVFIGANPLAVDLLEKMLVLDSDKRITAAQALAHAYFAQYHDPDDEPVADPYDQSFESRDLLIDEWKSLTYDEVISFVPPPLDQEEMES

This assay concerns the target T1, human p38 kinase alpha (Homo sapiens, UniProt Q16539).
T1 construct: GST (N, cleaved yes); made in house; host or cells: E. coli DH10B
Description: p38 kinase in vitro assay, phosphorylation of biotinylated PHAS-I with 32P-ATP. The settings on record: in vitro P38-alpha kinase; read-out: P38 alpha kinase IC50. Format: biochemical.
For orientation: IC50 means the concentration that gives 50% inhibition. Regarding `O=C(c1ccccc1Br)N1CCC(c2[nH]nc(-c3ccc(F)cc3)c2-c2ccncc2)CC1` [Example B-1398], the IC50 was 670 nM.

As for `O=C(c1ccccc1C(F)(F)F)N1CCC(c2[nH]nc(-c3ccc(F)cc3)c2-c2ccncc2)CC1` [Example B-1399], the IC50 was determined as 140 nM.

Turning to `Cc1ccccc1C(=O)N1CCC(c2[nH]nc(-c3ccc(F)cc3)c2-c2ccncc2)CC1` [Example B-1400], the IC50 came to 24 nM.

For `O=C(c1c(F)cccc1F)N1CCC(c2[nH]nc(-c3ccc(F)cc3)c2-c2ccncc2)CC1` [Example B-1401], the IC50 came out at 33 nM.

In the case of `O=C(c1cc(F)ccc1F)N1CCC(c2[nH]nc(-c3ccc(F)cc3)c2-c2ccncc2)CC1` [Example B-1402], the 50% inhibitory concentration (IC50) is 120 nM.

In the case of `Cc1noc(C)c1C(=O)N1CCC(c2[nH]nc(-c3ccc(F)cc3)c2-c2ccncc2)CC1` [Example B-1403], the IC50 is 4540 nM.

Regarding `O=C(c1c(F)cccc1C(F)(F)F)N1CCC(c2[nH]nc(-c3ccc(F)cc3)c2-c2ccncc2)CC1` [Example B-1404], the half-maximal inhibitory concentration (IC50) was 600 nM.

Regarding `O=C(c1cc(C(F)(F)F)ccc1F)N1CCC(c2[nH]nc(-c3ccc(F)cc3)c2-c2ccncc2)CC1` [Example B-1405], the IC50 was determined as 280 nM.

In the case of `O=C(c1ccc(C(F)(F)F)cc1F)N1CCC(c2[nH]nc(-c3ccc(F)cc3)c2-c2ccncc2)CC1` [Example B-1406], the IC50 stood at 1390 nM.

For `O=C(c1cccc(C(F)(F)F)c1F)N1CCC(c2[nH]nc(-c3ccc(F)cc3)c2-c2ccncc2)CC1` [Example B-1407], the IC50 amounted to 400 nM.

On to `O=C(c1ccc(F)c(C(F)(F)F)c1)N1CCC(c2[nH]nc(-c3ccc(F)cc3)c2-c2ccncc2)CC1` [Example B-1408], for which the IC50 was 270 nM.

For `O=C(c1cc(F)cc(C(F)(F)F)c1)N1CCC(c2[nH]nc(-c3ccc(F)cc3)c2-c2ccncc2)CC1` [Example B-1409], the IC50 was under 100 nM.

Take `O=C(c1ccc(F)cc1C(F)(F)F)N1CCC(c2[nH]nc(-c3ccc(F)cc3)c2-c2ccncc2)CC1` [Example B-1410]: the IC50 was under 100 nM.

For the compound `O=C(c1cccc(F)c1F)N1CCC(c2[nH]nc(-c3ccc(F)cc3)c2-c2ccncc2)CC1` [Example B-1411], the IC50 was under 100 nM.

Regarding `O=C(c1ccc(F)cc1F)N1CCC(c2[nH]nc(-c3ccc(F)cc3)c2-c2ccncc2)CC1` [Example B-1412], the IC50 was 97 nM.

Regarding `O=C(c1c(Cl)cccc1Cl)N1CCC(c2[nH]nc(-c3ccc(F)cc3)c2-c2ccncc2)CC1` [Example B-1413], the IC50 worked out at 16 nM.

For the compound `O=C(c1ccc(F)c(F)c1)N1CCC(c2[nH]nc(-c3ccc(F)cc3)c2-c2ccncc2)CC1` [Example B-1414], the IC50 worked out at 25 nM.

Turning to `O=C(c1cc(F)cc(F)c1)N1CCC(c2[nH]nc(-c3ccc(F)cc3)c2-c2ccncc2)CC1` [Example B-1415], the IC50 was 1410 nM.

Take `O=C(c1cccc(Cl)c1Cl)N1CCC(c2[nH]nc(-c3ccc(F)cc3)c2-c2ccncc2)CC1` [Example B-1416]: the IC50 is 140 nM.

On to `O=C(c1ccc(Cl)cc1Cl)N1CCC(c2[nH]nc(-c3ccc(F)cc3)c2-c2ccncc2)CC1` [Example B-1417], for which the IC50 came to 69 nM.

For the compound `O=C(c1ccc(Cl)c(Cl)c1)N1CCC(c2[nH]nc(-c3ccc(F)cc3)c2-c2ccncc2)CC1` [Example B-1418], the half-inhibitory concentration (IC50) was 1010 nM.

Regarding `O=C(c1cc(Cl)cc(Cl)c1)N1CCC(c2[nH]nc(-c3ccc(F)cc3)c2-c2ccncc2)CC1` [Example B-1419], the IC50 worked out at 300 nM.

Turning to `CCC(=O)N1CCC(c2[nH]nc(-c3ccc(F)cc3)c2-c2ccncc2)CC1` [Example B-1420], the IC50 is under 100 nM.

Take `CC(C)(C)C(=O)N1CCC(c2[nH]nc(-c3ccc(F)cc3)c2-c2ccncc2)CC1` [Example B-1421]: the IC50 was 14 nM.

For the compound `CCOC(=O)N1CCC(c2[nH]nc(-c3ccc(F)cc3)c2-c2ccncc2)CC1` [Example B-1422], the IC50 was found to be 580 nM.

On to `CCCOC(=O)N1CCC(c2[nH]nc(-c3ccc(F)cc3)c2-c2ccncc2)CC1` [Example B-1423], for which the IC50 turned out to be 1580 nM.

Regarding `CC(C)COC(=O)N1CCC(c2[nH]nc(-c3ccc(F)cc3)c2-c2ccncc2)CC1` [Example B-1424], the IC50 was determined as 860 nM.

In the case of `CC(C)OC(=O)N1CCC(c2[nH]nc(-c3ccc(F)cc3)c2-c2ccncc2)CC1` [Example B-1425], the IC50 was 90 nM.

`C=CCOC(=O)N1CCC(c2[nH]nc(-c3ccc(F)cc3)c2-c2ccncc2)CC1` [Example B-1426]: the IC50 was 190 nM.

As to `C#CCOC(=O)N1CCC(c2[nH]nc(-c3ccc(F)cc3)c2-c2ccncc2)CC1` [Example B-1427], the IC50 was under 100 nM.

On to `O=C(OCc1ccccc1)N1CCC(c2[nH]nc(-c3ccc(F)cc3)c2-c2ccncc2)CC1` [Example B-1428], for which the IC50 was under 100 nM.

Turning to `O=C(N1CCC(c2[nH]nc(-c3ccc(F)cc3)c2-c2ccncc2)CC1)C(F)(F)F` [Example B-1429], the IC50 was under 100 nM.

Turning to `CCCCS(=O)(=O)N1CCC(c2[nH]nc(-c3ccc(F)cc3)c2-c2ccncc2)CC1` [Example B-1430], the IC50 turned out to be 750 nM.

For the compound `CCCS(=O)(=O)N1CCC(c2[nH]nc(-c3ccc(F)cc3)c2-c2ccncc2)CC1` [Example B-1431], the IC50 turned out to be 360 nM.

Turning to `Cc1noc(C)c1S(=O)(=O)N1CCC(c2[nH]nc(-c3ccc(F)cc3)c2-c2ccncc2)CC1` [Example B-1435], the IC50 worked out at 1800 nM.

With `O=S(=O)(c1cccc2nonc12)N1CCC(c2[nH]nc(-c3ccc(F)cc3)c2-c2ccncc2)CC1` [Example B-1436], the IC50 was 1000 nM.

Turning to `O=S(=O)(c1cccs1)N1CCC(c2[nH]nc(-c3ccc(F)cc3)c2-c2ccncc2)CC1` [Example B-1437], the IC50 was 300 nM.

For the compound `O=S(=O)(c1ccc(Cl)s1)N1CCC(c2[nH]nc(-c3ccc(F)cc3)c2-c2ccncc2)CC1` [Example B-1438], the 50% inhibitory concentration (IC50) was determined as 2010 nM.

Regarding `O=S(=O)(c1ccc(-c2ccccn2)s1)N1CCC(c2[nH]nc(-c3ccc(F)cc3)c2-c2ccncc2)CC1` [Example B-1439], the IC50 was 1700 nM.

On to `O=S(=O)(c1ccccc1)c1ccc(S(=O)(=O)N2CCC(c3[nH]nc(-c4ccc(F)cc4)c3-c3ccncc3)CC2)s1` [Example B-1441], for which the IC50 is 1950 nM.

As to `O=S(=O)(c1cccc2cnccc12)N1CCC(c2[nH]nc(-c3ccc(F)cc3)c2-c2ccncc2)CC1` [Example B-1443], the IC50 came out at 14 nM.

Take `COc1ccc(Cl)cc1S(=O)(=O)N1CCC(c2[nH]nc(-c3ccc(F)cc3)c2-c2ccncc2)CC1` [Example B-1445]: the IC50 stood at 430 nM.

On to `COc1ccc(C)c(S(=O)(=O)N2CCC(c3[nH]nc(-c4ccc(F)cc4)c3-c3ccncc3)CC2)c1` [Example B-1447], for which the IC50 was 500 nM.

With `O=S(=O)(c1ccc(Cl)cc1Cl)N1CCC(c2[nH]nc(-c3ccc(F)cc3)c2-c2ccncc2)CC1` [Example B-1449], the IC50 is 1610 nM.

For the compound `O=S(=O)(c1cc(Cl)ccc1Cl)N1CCC(c2[nH]nc(-c3ccc(F)cc3)c2-c2ccncc2)CC1` [Example B-1450], the IC50 is 2100 nM.

As to `O=S(=O)(c1c(Cl)cccc1Cl)N1CCC(c2[nH]nc(-c3ccc(F)cc3)c2-c2ccncc2)CC1` [Example B-1451], the IC50 is 2880 nM.

For the compound `O=S(=O)(c1ccc(Cl)c(Cl)c1)N1CCC(c2[nH]nc(-c3ccc(F)cc3)c2-c2ccncc2)CC1` [Example B-1452], the IC50 worked out at 2410 nM.

On to `O=S(=O)(c1cc(Cl)cc(Cl)c1)N1CCC(c2[nH]nc(-c3ccc(F)cc3)c2-c2ccncc2)CC1` [Example B-1453], for which the IC50 came to 2530 nM.

On to `O=S(=O)(c1ccc(F)cc1F)N1CCC(c2[nH]nc(-c3ccc(F)cc3)c2-c2ccncc2)CC1` [Example B-1454], for which the IC50 turned out to be 1600 nM.

For the compound `O=S(=O)(c1ccccc1Cl)N1CCC(c2[nH]nc(-c3ccc(F)cc3)c2-c2ccncc2)CC1` [Example B-1457], the IC50 came out at 430 nM.

`O=S(=O)(c1ccccc1Br)N1CCC(c2[nH]nc(-c3ccc(F)cc3)c2-c2ccncc2)CC1` [Example B-1458]: the IC50 is 950 nM.

For the compound `Cc1ccccc1S(=O)(=O)N1CCC(c2[nH]nc(-c3ccc(F)cc3)c2-c2ccncc2)CC1` [Example B-1459], the IC50 amounted to 670 nM.

In the case of `N#Cc1ccccc1S(=O)(=O)N1CCC(c2[nH]nc(-c3ccc(F)cc3)c2-c2ccncc2)CC1` [Example B-1461], the concentration for half-maximal inhibition (IC50) was 400 nM.

In the case of `CS(=O)(=O)c1ccccc1S(=O)(=O)N1CCC(c2[nH]nc(-c3ccc(F)cc3)c2-c2ccncc2)CC1` [Example B-1462], the IC50 is 220 nM.

For the compound `O=S(=O)(c1ccccc1OC(F)(F)F)N1CCC(c2[nH]nc(-c3ccc(F)cc3)c2-c2ccncc2)CC1` [Example B-1463], the IC50 was 2340 nM.

In the case of `O=S(=O)(c1cccc(F)c1)N1CCC(c2[nH]nc(-c3ccc(F)cc3)c2-c2ccncc2)CC1` [Example B-1464], the IC50 stood at 1180 nM.

Turning to `O=S(=O)(c1ccc(Br)cc1)N1CCC(c2[nH]nc(-c3ccc(F)cc3)c2-c2ccncc2)CC1` [Example B-1472], the IC50 came to 930 nM.

For `CS(=O)(=O)c1ccc(S(=O)(=O)N2CCC(c3[nH]nc(-c4ccc(F)cc4)c3-c3ccncc3)CC2)cc1` [Example B-1476], the IC50 came to 47 nM.

With `O=S(=O)(c1ccc(OC(F)(F)F)cc1)N1CCC(c2[nH]nc(-c3ccc(F)cc3)c2-c2ccncc2)CC1` [Example B-1477], the IC50 amounted to 2500 nM.

For the compound `Cc1c(-c2ccncc2)c(-c2ccc(F)cc2)nn1CC(=O)NCCc1ccc(F)cc1` [Example B-2271], the IC50 amounted to 930 nM.

Consider `CCOCCCNC(=O)Cn1nc(-c2ccc(F)cc2)c(-c2ccncc2)c1C` [Example B-2273], for which the half-maximal inhibitory concentration (IC50) was found to be 1920 nM.

`Cc1c(-c2ccncc2)c(-c2ccc(F)cc2)nn1CC(=O)NCc1ccccc1Cl` [Example B-2274]: the IC50 was 260 nM.

With `Cc1c(-c2ccncc2)c(-c2ccc(F)cc2)nn1CC(=O)NCc1ccc(N(C)C)cc1` [Example B-2275], the 50% inhibitory concentration (IC50) was 2160 nM.

Regarding `Cc1c(-c2ccncc2)c(-c2ccc(F)cc2)nn1CC(=O)NCC1CC1` [Example B-2276], the half-inhibitory concentration (IC50) was 11500 nM.

For `Cc1c(-c2ccncc2)c(-c2ccc(F)cc2)nn1CC(=O)NCC(c1ccccc1)c1ccccc1` [Example B-2277], the IC50 was 14900 nM.
